The target in one data set is T1, Probable G-protein coupled receptor 27 (Homo sapiens, UniProt Q9NS67). The experiment in a line: Agonist activity at human GPR27 expressed in HEK293 cells assessed as induction of beta-arrestin recruitment pretreated with substrate for 45 mins followed by compound addition and measured for 40 mins by NanoLuc luciferase complementation assay.
T1 sequence (Q9NS67 whole entry): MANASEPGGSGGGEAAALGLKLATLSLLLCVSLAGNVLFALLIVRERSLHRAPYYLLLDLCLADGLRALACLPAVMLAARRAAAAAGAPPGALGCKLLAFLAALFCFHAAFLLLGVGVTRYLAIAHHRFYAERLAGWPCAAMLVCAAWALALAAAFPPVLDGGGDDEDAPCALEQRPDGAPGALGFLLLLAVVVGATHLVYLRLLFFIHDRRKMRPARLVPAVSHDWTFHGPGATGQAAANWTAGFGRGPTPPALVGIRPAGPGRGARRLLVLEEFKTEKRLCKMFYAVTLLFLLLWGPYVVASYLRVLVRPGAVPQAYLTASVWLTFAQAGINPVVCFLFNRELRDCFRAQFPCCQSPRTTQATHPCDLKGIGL
Details: not given
Type of data set: functional, cell-based. For orientation: Activated receptors often draw arrestin, which recruitment assays turn into a signal.
For orientation: EC50 means the concentration needed to bring the measured effect to its halfway point. On to `O=C(Nc1ccc(S(=O)(=O)Nc2ccccc2)cc1)c1ccc(Cl)cc1Cl`, for which the EC50 came out at 912 nM.
Same read-out and setting: in the case of `O=C(Nc1ccc(S(=O)(=O)Nc2nccs2)cc1)c1ccc(Cl)cc1Cl` it was 1300 nM.

For the next data set, the system named is HEK293. Briefly: Cytotoxicity against human HEK293 cells expressing FnLArrb2.GPR27V2LFc up to 33.3 uM incubated for 10 mins by MTT assay. Type of data set: cell-based. The settings on record: hek293, 10 min. In general terms: Formazan colour is commonly taken as a measure of viable cells.
Consider `O=C(Nc1ccc(S(=O)(=O)Nc2ccccc2)cc1)c1ccc(Cl)cc1Cl`, for which the Activity entry was “Non-Toxic”.
Same read-out and setting: in the case of `Cc1cc(Cl)ccc1C(=O)Nc1ccc(S(=O)(=O)Nc2ccccc2)cc1` it was “Non-Toxic”.
The same measure, in the same setting: in the case of `Cc1cc(Br)ccc1C(=O)Nc1ccc(S(=O)(=O)Nc2ccccc2)cc1` it was “Non-Toxic”; in that of `O=C(Nc1ccc(S(=O)(=O)Nc2ccccc2)cc1)c1ccc(C(F)(F)F)cc1F`, “Non-Toxic”.

For a further data set, the target named is T1, Probable G-protein coupled receptor 27. Briefly: Agonist activity at human GPR27 expressed in HEK293 cells co-expressing FnLArrb2.GPR27V2LFc assessed as induction of beta-arrestin recruitment incubated for 10 mins measured followed by addition of D-luciferin by firefly-luciferase complementation assay. Type of data set: functional, cell-based.
Details: not given
Regarding `O=C(Nc1ccc(S(=O)(=O)Nc2ccccc2)cc1)c1ccc(Cl)cc1Br`, the EC50 is 1020 nM.
The same measure, in the same setting: in the case of `O=C(Nc1ccc(S(=O)(=O)Nc2ccccc2)cc1)c1ncc(Cl)cc1Cl` it was 5750 nM; in that of `O=C(Nc1ccc(S(=O)(=O)NCc2ccccc2)cc1)c1ccc(Cl)cc1Cl`, over 100000 nM.
Same read-out and setting: in the case of `COc1ccc(NS(=O)(=O)c2ccc(NC(=O)c3ccc(Cl)cc3Cl)cc2)cc1` it was over 100000 nM; in that of `O=C(Nc1ccc(S(=O)(=O)Nc2ccccc2)cc1)c1cc(F)c(Cl)cc1F`, 141 nM.
In the case of `O=C(Nc1ccc(S(=O)(=O)Nc2ccccc2)cc1)c1cc2ccccc2oc1=O`, the EC50 is 7760 nM.
The same measure, in the same setting: in the case of `O=C(Nc1ccc(S(=O)(=O)Nc2ccccc2)cc1)c1ccc(Cl)cc1F` it was 3980 nM.
In the case of `O=C(Nc1ccc(S(=O)(=O)Nc2ccccc2)cc1)c1ccc(Br)cc1F`, the EC50 was 479 nM.
On the same count and under the same terms, in the case of `N#Cc1ccc(C(=O)Nc2ccc(S(=O)(=O)Nc3ccccc3)cc2)c(F)c1` it was 229 nM; in that of `O=C(Nc1cccc(S(=O)(=O)Nc2ccccc2)c1)c1ccc(Cl)cc1Cl`, over 100000 nM.
Still for that read-out and setting: in the case of `CN(c1ccccc1)S(=O)(=O)c1ccc(NC(=O)c2ccc(Cl)cc2Cl)cc1` it was 2570 nM.
Regarding `O=C(Nc1ccc(S(=O)(=O)Nc2ccccc2)cc1)c1ccc(I)cc1F`, the EC50 was 5130 nM.
On the same count and under the same terms, in the case of `O=C(Nc1ccc(S(=O)(=O)Nc2cccc(Cl)c2)cc1)c1ccc(Cl)cc1Cl` it was 575 nM; in that of `O=C(NS(=O)(=O)c1ccc(NC(=O)c2ccc(Cl)cc2Cl)cc1)c1ccccc1`, over 100000 nM; in that of `O=C(Nc1ccc(S(=O)(=O)Nc2ccccc2Cl)cc1)c1ccc(Cl)cc1Cl`, 1260 nM.
Same read-out and setting: in the case of `O=C(Nc1ccc(S(=O)(=O)Nc2ccccc2)cc1)c1ccc(Cl)cc1Cl` it was 457 nM; in that of `O=C(Nc1ccc(S(=O)(=O)Nc2ccccc2)cc1)c1ccc(Cl)nc1F`, 2290 nM.
As for `Cc1cc(Cl)ccc1C(=O)Nc1ccc(S(=O)(=O)Nc2ccccc2)cc1`, the EC50 was 912 nM.
As to `O=C(Nc1ccc(Cl)cc1Cl)c1ccc(S(=O)(=O)Nc2ccccc2)cc1`, the EC50 is over 100000 nM.
On to `O=C(Nc1ccc(S(=O)(=O)Nc2ccccc2)cc1)c1ccc2ccccc2c1`, for which the EC50 was 8510 nM.
Consider `COc1cc(Br)ccc1C(=O)Nc1ccc(S(=O)(=O)Nc2ccccc2)cc1`, for which the concentration giving a half-maximal response (EC50) is 1020 nM.
Same read-out and setting: in the case of `O=C(Cc1ccc(Cl)cc1Cl)Nc1ccc(S(=O)(=O)Nc2ccccc2)cc1` it was over 100000 nM; in that of `Cc1cc(Br)ccc1C(=O)Nc1ccc(S(=O)(=O)Nc2ccccc2)cc1`, 851 nM; in that of `Cc1ccc(NS(=O)(=O)c2ccc(NC(=O)c3ccc(Cl)cc3Cl)cc2)cc1`, over 100000 nM.
Turning to `O=C(Nc1ccc(S(=O)(=O)Nc2ncccn2)cc1)c1ccc(Cl)cc1Cl`, the half-maximal effective concentration (EC50) was over 100000 nM.
The same measure, in the same setting: in the case of `O=S(=O)(Nc1ccccc1)c1ccc(NS(=O)(=O)c2ccc(Cl)cc2Cl)cc1` it was over 100000 nM; in that of `O=C(Nc1ccc(S(=O)(=O)Nc2ccccc2)cc1)c1ccc(C(F)(F)F)cc1F`, 363 nM; in that of `O=C(Nc1ccc(S(=O)(=O)Nc2ccc(Cl)cc2)cc1)c1ccc(Cl)cc1Cl`, over 100000 nM.
In the case of `O=C(Nc1ccccc1)c1ccc(NC(=O)c2ccc(Cl)cc2Cl)cc1`, the EC50 was over 10000 nM.
`Cc1ccccc1NS(=O)(=O)c1ccc(NC(=O)c2ccc(Cl)cc2Cl)cc1`: the EC50 was 1230 nM.
With `O=C(Nc1ccc(S(=O)(=O)Nc2ccccn2)cc1)c1ccc(Cl)cc1Cl`, the EC50 is 3020 nM.

The record behind these values is ChEMBL document CHEMBL4828750, “Structure-activity relationships of agonists for the orphan G protein-coupled receptor GPR27” (Eur J Med Chem, 2021).
